Data as given in the CheMixHub ionic liquid set.
± gives the uncertainty stated by the source.

Experiment: xn = mol fraction of the nth substance listed

## CCOC(=O)OCC + CCCC[N+]1(C)CCCC1.O=S(=O)([N-]S(=O)(=O)C(F)(F)F)C(F)(F)F
323.15 K, 100 kPa, x2 = 0
  viscosity: 0.54 ± 0.02 mPa·s

## CC#N + CCCC[N+]1(C)CCCC1.O=S(=O)([O-])C(F)(F)F
288.15 K, 101 kPa, x1 = 1
  viscosity: 0.371 ± 0.008 mPa·s
293.15 K, 101 kPa, x1 = 1
  viscosity: 0.355 ± 0.008 mPa·s
298.15 K, 101 kPa, x1 = 1
  viscosity: 0.337 ± 0.007 mPa·s

## CN(C)C=O + CCCC[P+](C)(CCCC)CCCC.COS(=O)(=O)[O-]
308.15 K, 100 kPa, x2 = 0
  viscosity: 0.717 ± 0.015 mPa·s
323.15 K, 100 kPa, x2 = 0
  viscosity: 0.63 ± 0.013 mPa·s

## CC#N + CCCC[P+](CC)(CCCC)CCCC.F[B-](F)(F)F
293.15 K, 100 kPa, x2 = 0
  viscosity: 0.354 ± 0.021 mPa·s
298.15 K, 100 kPa, x2 = 0
  viscosity: 0.338 ± 0.02 mPa·s
303.15 K, 100 kPa, x2 = 0
  viscosity: 0.324 ± 0.02 mPa·s
308.15 K, 100 kPa, x2 = 0
  viscosity: 0.31 ± 0.019 mPa·s
313.15 K, 100 kPa, x2 = 0
  viscosity: 0.298 ± 0.018 mPa·s
318.15 K, 100 kPa, x2 = 0
  viscosity: 0.286 ± 0.017 mPa·s

## CC#N + CCCC[P+](CCCC)(CCCC)CCCC.F[B-](F)(F)F
293.15 K, 100 kPa, x2 = 0
  viscosity: 0.354 ± 0.021 mPa·s
298.15 K, 100 kPa, x2 = 0
  viscosity: 0.338 ± 0.02 mPa·s
303.15 K, 100 kPa, x2 = 0
  viscosity: 0.324 ± 0.02 mPa·s
308.15 K, 100 kPa, x2 = 0
  viscosity: 0.31 ± 0.019 mPa·s
313.15 K, 100 kPa, x2 = 0
  viscosity: 0.298 ± 0.018 mPa·s
318.15 K, 100 kPa, x2 = 0
  viscosity: 0.286 ± 0.017 mPa·s

## CCCCCC(=O)O + CCCC[P+](CCCC)(CCCC)CCCC.[Br-]
298 K, 100 kPa, x2 = 0.5
  viscosity: 290 mPa·s

## CCCC[N+]1(C)CCCC1.F[P-](F)(F)(F)(F)F + CCCC[n+]1cccc(C)c1.F[P-](F)(F)(F)(F)F
308.15 K, 101.3 kPa, x2 = 0.4
  viscosity: 535 ± 19 mPa·s
313.15 K, 101.3 kPa, x2 = 0.4
  viscosity: 390 ± 13 mPa·s
318.15 K, 101.3 kPa, x2 = 0.4
  viscosity: 290 ± 9 mPa·s
318.15 K, 101.3 kPa, x2 = 0.5
  viscosity: 262 ± 8 mPa·s
328.15 K, 101.3 kPa, x2 = 0.4
  viscosity: 170 ± 4 mPa·s
328.15 K, 101.3 kPa, x2 = 0.7
  viscosity: 123 ± 3 mPa·s
328.15 K, 101.3 kPa, x2 = 0.9
  viscosity: 102 ± 2 mPa·s
333.15 K, 101.3 kPa, x2 = 0.6
  viscosity: 108 ± 3 mPa·s
338.15 K, 101.3 kPa, x2 = 0.5
  viscosity: 96 ± 2 mPa·s
343.15 K, 101.3 kPa, x2 = 0.2
  viscosity: 110 ± 3 mPa·s
343.15 K, 101.3 kPa, x2 = 0.4
  viscosity: 86 ± 2 mPa·s
343.15 K, 101.3 kPa, x2 = 0.6
  viscosity: 70 ± 2 mPa·s
348.15 K, 101.3 kPa, x2 = 0.6
  viscosity: 57 ± 1 mPa·s
353.15 K, 101.3 kPa, x2 = 0.4
  viscosity: 58 ± 1 mPa·s
358.15 K, 101.3 kPa, x2 = 0.2
  viscosity: 61 ± 1 mPa·s
358.15 K, 101.3 kPa, x2 = 0.4
  viscosity: 48 ± 1 mPa·s
363.15 K, 101.3 kPa, x2 = 0.5
  viscosity: 37 ± 1 mPa·s
363.15 K, 101.3 kPa, x2 = 0.6
  viscosity: 34 ± 1 mPa·s

## CCCC[n+]1ccccc1.O=S(=O)([N-]S(=O)(=O)C(F)(F)F)C(F)(F)F + CCCC[n+]1ccccc1.F[B-](F)(F)F
303.15 K, 101 kPa, x1 = 0.2162
  viscosity: 91.2 ± 2.7 mPa·s
303.15 K, 101 kPa, x1 = 0.7643
  viscosity: 58.2 ± 1.3 mPa·s
313.15 K, 101 kPa, x1 = 0.4327
  viscosity: 48.4 ± 1.1 mPa·s
313.15 K, 101 kPa, x1 = 0.5429
  viscosity: 46.2 ± 1.1 mPa·s
313.15 K, 101 kPa, x1 = 0.6523
  viscosity: 42.5 ± 1 mPa·s
313.15 K, 101 kPa, x1 = 0.8822
  viscosity: 36.3 ± 0.9 mPa·s
323.15 K, 101 kPa, x1 = 1
  viscosity: 24.2 ± 0.6 mPa·s
333.15 K, 101 kPa, x1 = 0.6523
  viscosity: 21.8 ± 0.5 mPa·s
343.15 K, 101 kPa, x1 = 0.1119
  viscosity: 21.9 ± 0.5 mPa·s
343.15 K, 101 kPa, x1 = 0.2162
  viscosity: 19.9 ± 0.5 mPa·s
343.15 K, 101 kPa, x1 = 0.8822
  viscosity: 14.5 ± 0.3 mPa·s
353.15 K, 101 kPa, x1 = 0.1119
  viscosity: 16.5 ± 0.4 mPa·s
353.15 K, 101 kPa, x1 = 0.4327
  viscosity: 13.7 ± 0.3 mPa·s
353.15 K, 101 kPa, x1 = 0.5429
  viscosity: 13.2 ± 0.3 mPa·s
353.15 K, 101 kPa, x1 = 1
  viscosity: 10.9 ± 0.3 mPa·s

## CCCC[n+]1ccccc1.[Cl-] + CCCC[n+]1ccccc1.[Br-]
398.1 K, 101 kPa, x1 = 0.084
  viscosity: 33 ± 2.4 mPa·s
403.1 K, 101 kPa, x1 = 0.084
  viscosity: 27.4 ± 2.1 mPa·s
408.1 K, 101 kPa, x1 = 0.389
  viscosity: 23.9 ± 1.7 mPa·s
418.1 K, 101 kPa, x1 = 0.169
  viscosity: 16.9 ± 1.1 mPa·s
418.1 K, 101 kPa, x1 = 0.389
  viscosity: 17.4 ± 1.1 mPa·s
418.1 K, 101 kPa, x1 = 0.689
  viscosity: 18.6 ± 1.1 mPa·s
418.1 K, 101 kPa, x1 = 0.892
  viscosity: 19.4 ± 1.1 mPa·s
423.1 K, 101 kPa, x1 = 0.084
  viscosity: 14.37 ± 0.86 mPa·s
423.1 K, 101 kPa, x1 = 0.892
  viscosity: 16.89 ± 0.97 mPa·s
428.1 K, 101 kPa, x1 = 0.785
  viscosity: 14.42 ± 0.79 mPa·s
433.1 K, 101 kPa, x1 = 0.292
  viscosity: 11.45 ± 0.6 mPa·s
433.1 K, 101 kPa, x1 = 0.892
  viscosity: 13.16 ± 0.67 mPa·s
438.1 K, 101 kPa, x1 = 0.169
  viscosity: 10.08 ± 0.49 mPa·s
438.1 K, 101 kPa, x1 = 0.469
  viscosity: 10.85 ± 0.52 mPa·s
438.1 K, 101 kPa, x1 = 0.892
  viscosity: 11.77 ± 0.56 mPa·s

## CC#N + CCCC[n+]1ccn(C)c1.F[B-](F)(F)F
298.15 K, 100 kPa, x2 = 0
  electrical conductivity: 0.0002 ± 0.0001 S/m
  viscosity: 0.37 ± 0.0047 mPa·s
333.15 K, 101 kPa, x1 = 1
  viscosity: 0.257 ± 0.004 mPa·s

## CC(=O)c1ccccc1 + CCCC[n+]1ccn(C)c1.F[B-](F)(F)F
293.15 K, 100 kPa, x1 = 0.0513
  viscosity: 79 ± 16 mPa·s
293.15 K, 100 kPa, x1 = 0.1001
  viscosity: 56 ± 11 mPa·s
293.15 K, 100 kPa, x1 = 0.2046
  viscosity: 43.6 ± 8.7 mPa·s
293.15 K, 100 kPa, x1 = 0.306
  viscosity: 42.4 ± 8.5 mPa·s
293.15 K, 100 kPa, x1 = 0.3976
  viscosity: 41.7 ± 8.3 mPa·s
293.15 K, 100 kPa, x1 = 0.5064
  viscosity: 34.4 ± 6.9 mPa·s
293.15 K, 100 kPa, x1 = 0.6079
  viscosity: 29.5 ± 5.9 mPa·s
293.15 K, 100 kPa, x1 = 0.7065
  viscosity: 26 ± 5.2 mPa·s
293.15 K, 100 kPa, x1 = 0.8054
  viscosity: 22.3 ± 4.5 mPa·s
293.15 K, 100 kPa, x1 = 0.9026
  viscosity: 11.8 ± 2.4 mPa·s
293.15 K, 100 kPa, x1 = 0.9516
  viscosity: 7 ± 1.4 mPa·s
293.15 K, 100 kPa, x1 = 1
  viscosity: 1.91 ± 0.38 mPa·s
303.15 K, 100 kPa, x1 = 0.0513
  viscosity: 50 ± 10 mPa·s
303.15 K, 100 kPa, x1 = 0.1001
  viscosity: 38.6 ± 7.7 mPa·s
303.15 K, 100 kPa, x1 = 0.2046
  viscosity: 30.8 ± 6.2 mPa·s
303.15 K, 100 kPa, x1 = 0.306
  viscosity: 28.6 ± 5.7 mPa·s
303.15 K, 100 kPa, x1 = 0.3976
  viscosity: 25.9 ± 5.2 mPa·s
303.15 K, 100 kPa, x1 = 0.5064
  viscosity: 21.3 ± 4.3 mPa·s
303.15 K, 100 kPa, x1 = 0.6079
  viscosity: 16.9 ± 3.4 mPa·s
303.15 K, 100 kPa, x1 = 0.7065
  viscosity: 13.7 ± 2.7 mPa·s
303.15 K, 100 kPa, x1 = 0.8054
  viscosity: 11.7 ± 2.3 mPa·s
303.15 K, 100 kPa, x1 = 0.9026
  viscosity: 8 ± 1.6 mPa·s
303.15 K, 100 kPa, x1 = 0.9516
  viscosity: 5 ± 1 mPa·s
303.15 K, 100 kPa, x1 = 1
  viscosity: 1.65 ± 0.33 mPa·s
313.15 K, 100 kPa, x1 = 0.0513
  viscosity: 30.5 ± 6.1 mPa·s
313.15 K, 100 kPa, x1 = 0.1001
  viscosity: 21.6 ± 4.3 mPa·s
313.15 K, 100 kPa, x1 = 0.2046
  viscosity: 19 ± 3.8 mPa·s
313.15 K, 100 kPa, x1 = 0.306
  viscosity: 16.9 ± 3.4 mPa·s
313.15 K, 100 kPa, x1 = 0.3976
  viscosity: 11.8 ± 2.4 mPa·s
313.15 K, 100 kPa, x1 = 0.5064
  viscosity: 10.8 ± 2.2 mPa·s
313.15 K, 100 kPa, x1 = 0.6079
  viscosity: 9.8 ± 2 mPa·s
313.15 K, 100 kPa, x1 = 0.7065
  viscosity: 8.3 ± 1.7 mPa·s
313.15 K, 100 kPa, x1 = 0.8054
  viscosity: 7.1 ± 1.4 mPa·s
313.15 K, 100 kPa, x1 = 0.9026
  viscosity: 5.7 ± 1.1 mPa·s
313.15 K, 100 kPa, x1 = 0.9516
  viscosity: 3.65 ± 0.73 mPa·s
313.15 K, 100 kPa, x1 = 1
  viscosity: 1.37 ± 0.27 mPa·s
323.15 K, 100 kPa, x1 = 0.0513
  viscosity: 20.4 ± 4.1 mPa·s
323.15 K, 100 kPa, x1 = 0.1001
  viscosity: 15.4 ± 3.1 mPa·s
323.15 K, 100 kPa, x1 = 0.2046
  viscosity: 13.7 ± 2.7 mPa·s
323.15 K, 100 kPa, x1 = 0.306
  viscosity: 12.2 ± 2.4 mPa·s
323.15 K, 100 kPa, x1 = 0.3976
  viscosity: 9.7 ± 1.9 mPa·s
323.15 K, 100 kPa, x1 = 0.5064
  viscosity: 7.6 ± 1.5 mPa·s
323.15 K, 100 kPa, x1 = 0.6079
  viscosity: 6.5 ± 1.3 mPa·s
323.15 K, 100 kPa, x1 = 0.7065
  viscosity: 5.4 ± 1.1 mPa·s
323.15 K, 100 kPa, x1 = 0.8054
  viscosity: 4.79 ± 0.96 mPa·s
323.15 K, 100 kPa, x1 = 0.9026
  viscosity: 3.81 ± 0.76 mPa·s
323.15 K, 100 kPa, x1 = 0.9516
  viscosity: 2.8 ± 0.56 mPa·s
323.15 K, 100 kPa, x1 = 1
  viscosity: 1.17 ± 0.23 mPa·s
333.15 K, 100 kPa, x1 = 0.0513
  viscosity: 12.9 ± 2.6 mPa·s
333.15 K, 100 kPa, x1 = 0.1001
  viscosity: 11.5 ± 2.3 mPa·s
333.15 K, 100 kPa, x1 = 0.2046
  viscosity: 10.3 ± 2.1 mPa·s
333.15 K, 100 kPa, x1 = 0.306
  viscosity: 9.2 ± 1.8 mPa·s
333.15 K, 100 kPa, x1 = 0.3976
  viscosity: 6.7 ± 1.4 mPa·s
333.15 K, 100 kPa, x1 = 0.5064
  viscosity: 6.2 ± 1.2 mPa·s
333.15 K, 100 kPa, x1 = 0.6079
  viscosity: 5.7 ± 1.1 mPa·s
333.15 K, 100 kPa, x1 = 0.9026
  viscosity: 3.23 ± 0.65 mPa·s
333.15 K, 100 kPa, x1 = 0.9516
  viscosity: 2.22 ± 0.44 mPa·s
333.15 K, 100 kPa, x1 = 1
  viscosity: 1.02 ± 0.2 mPa·s
